Experimental data taken from US4549988A, “3H-2-Benzazepines” (Hoffmann-La Roche Inc., priority 1983, dated 1985).

Key:
[1] = tested on: metrazol convulsive seizures; assay: antimetrazol test (oral compound, protection from metrazol-induced convulsive seizures); format: in vivo; conditions: Mus musculus, 1 h, mice, one hour before metrazol s.c., Miller-Tainter method
Experimental: Periodically a metrazol standardization test precedes the assay to ascertain the quantity of metrazol, administered to control mice, sufficient to induce convulsive seizures in all animals. This is usually 125 mg/kg. In the antimetrazol test, a compound is administered orally to groups of four mice at various dose levels. One hour later, metrazol (at a dose level previously determined in the standardization test) is administered subcutaneously and the animals are observed for protection from convulsive seizures. Results are recorded as the number of animals protected against convulsions. The dose at which 50% of the animals are protected from convulsive seizures is expressed as the ED50. On active compounds, 8 animals employed per dose group. The ED50 is calculated by the Miller-Tainter method (Proc.Soc.Exp.Med. and Bio., 57, 261, 1944).

[2] = Toxicity, 24 hr. LD50 (PO); conditions: in vivo
[3] = target: ^3 H--Imipramine Binding; assay: imipramine binding assay (3H-imipramine, rat cortex homogenate); set-up: species or system Sprague Dawley male rats; conditions: 15 minutes at room temperature, nonspecific binding by 10^-3 M imipramine
Experimental: IMIPRAMINE BINDING ASSAY METHOD
Sprague Dawley male rats (180 g) are decapitated and the brains immediately placed on ice. Cortex is dissected and homogenized in 8 volumes of 0.25M sucrose. Homogenate is centrifuged at 2900 rpm (1000×g) in a Sorvall RCLB centrifuge with a SM 24 head. Supernatant is decanted and polytronized for 60 seconds using a Brinkmann Polytron (Model PT-10) at setting 5. Dilutions of imipramine hydrochloride are made in ehtanol (1:5). Each assay sample contains: 1.8 ml of Krebs Ringer Buffer, 20 μl of imipramine or other drugs and 20 μl of ^3 H-imipramine ([…]). The ^3 H-imipramine is from New England Nuclear #NET 576, 20-40 curies/millimole. Imipramine (10^-3 M) is used to define nonspecific binding. Incubation is for 15 minutes at room temperature. Samples are then put in ice bath for 5 minutes. Each sample is filtered on a 45-place manifold (E. Sandbek Co., Airville, Pa.). Filter is a Whatman GF/B. Filters are placed in 13 ml of aquasol and shaken for 2 hours, then the radioactivity trapped on the filter is determined by liquid scintillation spectrometry.

SMILES | ED50 [1] [mg/kg] | LD50 at 24 h [2] [mg/kg] | IC50 [3] [µM]
[O-][N+]1=C(c2ccccc2)c2cc(Cl)ccc2C=CC1 [8-Chloro-1-phenyl-3H-2-benzazepine-2-oxide] | 5.2 | > 1000 | –
Cl.Cl.NCC#CC1=CCN=C(c2ccccc2F)c2cc(Cl)ccc21 [8-Chloro-5-(1-amino-2-propyn-3-yl)-1-(2-fluorophenyl)-3H-2-benzazepine dihydrochloride] | 3 | 500 | 20
Cl.Cl.NCC#CC1=CCN=C(c2ccccc2)c2cc(Cl)ccc21 [8-Chloro-5-(1-amino-2-propyn-3-yl)-1-phenyl-3H-2-benzazepine dihydrochloride] | 32 | 500 | 11
CN(C)CC#CC1=CCN=C(c2ccccc2F)c2cc(Cl)ccc21.Cl.Cl [8-Chloro-5-(1-dimethylamino-2-propyn-3-yl)-1-(2-fluorophenyl)-3H-2-benzazepine dihydrochloride] | 19 | > 1000 | –
CN(C)CCCN1c2ccccc2CCc2ccccc21 [Imipramine, reference compound] | – | – | 7.1
